Where two headings read alike, the source gives them in different places.
Experiments:
[1] = target: T1, HIV-1 RT enzyme (Human immunodeficiency virus type 1 group M subtype B, UniProt P04585); experiment: RT Polymerase Assay; format: biochemical
T1 construct: Full-length wild-type and 2 mutant RT proteins were expressed in Escherichia coli BL21(DE3) cells and purified; made in house; host or cells: Escherichia coli BL21(DE3)
From the text: The compounds of Formula I, and pharmaceutically acceptable salts thereof, are HIV reverse transcriptase inhibitors. The compounds are useful for inhibiting HIV reverse transcriptase and for inhibiting HIV replication in vitro and in vivo. More particularly, the compounds of Formula I inhibit the polymerase function of HIV-1 reverse transcriptase. The testing of compounds of the Examples of the invention in the assay set forth in the RT Polymerase Assay below, illustrates the ability of compounds of the invention to inhibit the RNA-dependent DNA polymerase activity of HIV-1 reverse transcriptase. The compounds of Formula I may also be useful agents against HIV-2.
Full-length wild-type and 2 mutant RT proteins were expressed in Escherichia coli BL21(DE3) cells and purified. Briefly, the heterodimeric nucleic acid substrate used in the HIV-1 RT polymerase reactions was generated by annealing biotinylated DNA primer to a 500 nucleotide RNA template. The HIV-1 RT enzyme (final concentration of 50 pM) was combined with an inhibitor compound or DMSO (10% DMSO in the final reaction mixture) in assay buffer (62.5 mM Tris-HCl, pH 7.8, 1.25 mM dithiothreitol, 7.5 mM MgCl2, 100 mM KCl, 0.03% CHAPS, 0.125 mM EGTA). This mixture was pre-incubated for 30 minutes at room temperature in microtiter plates. The polymerization reaction was initiated by the addition of template/primer substrate (final concentration: 16.6 nM) and dNTPs (final concentration: 2 μM dCTP, dGTP, dATP, and 66.6 nM Ru-dUTP). After 90 min of incubation at 37° C., reactions were quenched by the addition of EDTA (25 mM). The resulting mixture was incubated for an additional 5 minutes at room temperature followed by transferring the solution (50 μL) to blocked avidin plate from Meso Scale Discovery (MSD). The mixtures were incubated at room temperature for 60 min prior to the quantification of the reaction product via an ECL 6000 imager instrument.

[2] = system: HIV-1 (H9IIIB virus); experiment: Viking assay: antiviral potency in a multiple round HIV-1 infection assay (MT4-GFP cells); format: cell-based; conditions: 10% normal human serum, inhibition of reproductive ratio R0, read-out: Viking, IC50 (10% NHS)
Protocol: Assessing Antiviral Potency in a Multiple Round HIV-1 Infection Assay.
HIV-1 replication was monitored using MT4-gag-GFP clone D3 (hereafter designate MT4-GFP), which are MT-4 cells modified to harbor a GFP reporter gene, the expression of which is dependent on the HIV-1 expressed proteins tat and rev. Productive infection of an MT4-GFP cell with HIV-1 results in GFP expression approximately 24h post-infection.
MT4-GFP cells were maintained at 37° C./5% CO2/90% relative humidity in RPMI 1640 supplemented with 10% fetal bovine serum, 100 U/mL penicillin/streptomycin, and 400 μg/mL G418 to maintain the reporter gene. For infections, MT4-GFP cells were placed in the same medium lacking G418 and infected overnight with H9IIIB virus at an approximate multiplicity of infection of 0.01 in the same incubation conditions. Cells were then washed and re-suspended in either RPMI 1640 containing 10% or 50% normal human serum at 1.6×10^5 cells/mL. Compound plates were prepared by dispensing compounds dissolved in DMSO into wells of 384 well poly D lysine-coated plates ([…]) using an ECHO acoustic dispenser. Each compound was tested in a 10 point serial 3-fold dilution (typical final concentrations: 8.4 μM-0.43 nM). Controls included no inhibitor (DMSO only) and a combination of three antiviral agents (efavirenz, indinavir, and an integrase strand transfer inhibitor at final concentrations of 4 μM each). Cells were added (50 μL/well) to compound plates and the infected cells were maintained at 37° C./5% CO2/90% relative humidity.
Infected cells were quantified at two time points, ˜48h and ˜72h post-infection, by counting the number of green cells in each well using an Acumen eX3 scanner. The increase in the number of green cells over ˜24h period gives the reproductive ratio, R0, which is typically 5-15 and has been shown experimentally to be in logarithmic phase (data not shown). Inhibition of R0 is calculated for each well, and IC50s determined by non-linear 4-parameter curve fitting.

[3] = HIV-1 RT 50 pM, 90 min at 37° C., triphosphates tested, read-out: dNTP IC50
[4] = Human immunodeficiency virus 1, MT4-GFP cells

Compound | IC50 [1, 3] [pM] | IC50 [1] [pM] | also measured
((1S,2S,4R)-4-(2,6-dichloro-9H-purin-9-yl)-1-ethynyl-2-hydroxycyclopentyl)methyl tetrahydrogen triphosphate and ((1R,2R,4S)-4-(2,6-dichloro-9H-purin-9-yl)-1-ethynyl-2-hydroxycyclopentyl)methyl tetrahydrogen triphosphate [Example (+/−) 43] | > 1e+08 |  | 
((1S,2S,4R)-4-(2,4-dichloro-7H-pyrrolo[2,3-d]pyrimidin-7-yl)-1-ethynyl-2-hydroxycyclopentyl)methyl tetrahydrogen triphosphate and ((1R,2R,4S)-4-(2,4-dichloro-7H-pyrrolo[2,3-d]pyrimidin-7-yl)-1-ethynyl-2-hydroxycyclopentyl)methyl tetrahydrogen triphosphate [Example (+/−) 45] | 3.38e+07 |  | 
((1S,2S,4R)-4-(6-amino-2-fluoro-9H-purin-9-yl)-1-ethynyl-2-hydroxycyclopentyl)methyl tetrahydrogen triphosphate and ((1R,2R,4S)-4-(6-amino-2-fluoro-9H-purin-9-yl)-1-ethynyl-2-hydroxycyclopentyl)methyl tetrahydrogen triphosphate [Example (+/−) 41] | 3.46e+06 |  | 
N#CC1(COP(=O)(O)OP(=O)(O)OP(=O)(O)O)CC(n2cnc3c(=O)[nH]c(N)nc32)CC1O (racemic) [Example (+/−) 75, ((1S,2S,4R)-4-(2-amino-6-oxo-1,6-dihydro-9H-purin-9-yl)-1-cyano-2-hydroxycyclopentyl)methyl tetrahydrogen triphosphate and ((1R,2R,4S)-4-(2-amino-6-oxo-1,6-dihydro-9H-purin-9-yl)-1-cyano-2-hydroxycyclopentyl)methyl tetrahydrogen triphosphate] |  | 444000 | 
((1S,2S,4R)-4-(4-amino-2-chloro-7H-pyrrolo[2,3-d]pyrimidin-7-yl)-1-ethynyl-2-hydroxycyclopentyl)methyl tetrahydrogen triphosphate and ((1R,2R,4S)-4-(4-amino-2-chloro-7H-pyrrolo[2,3-d]pyrimidin-7-yl)-1-ethynyl-2-hydroxycyclopentyl)methyl tetrahydrogen triphosphate [Example (+/−) 46] | 1.39e+07 |  | 
C#CC1(COP(=O)(O)OP(=O)(O)OP(=O)(O)O)CC(n2ccc(N)nc2=O)CC1O (racemic) [Example (+/−) 49, ((1S,2S,4R)-4-(4-amino-2-oxopyrimidin-1(2H)-yl)-1-ethynyl-2-hydroxycyclopentyl)methyl tetrahydrogen triphosphate and ((1R,2R,4S)-4-(4-amino-2-oxopyrimidin-1(2H)-yl)-1-ethynyl-2-hydroxycyclopentyl)methyl tetrahydrogen triphosphate] |  | > 1e+08 | 
C#CC1(COP(=O)(O)OP(=O)(O)OP(=O)(O)O)CC(n2cnc3c(=O)[nH]c(N)nc32)CC1O (racemic) [Example (+/−) 47, ((1S,2S,4R)-4-(2-amino-6-oxo-1,6-dihydro-9H-purin-9-yl)-1-ethynyl-2-hydroxycyclopentyl)methyl tetrahydrogen triphosphate and ((1R,2R,4S)-4-(2-amino-6-oxo-1,6-dihydro-9H-purin-9-yl)-1-ethynyl-2-hydroxycyclopentyl)methyl tetrahydrogen triphosphate] |  | 324000 | 
Cc1cn(C2CC(O)C(C#N)(COP(=O)(O)OP(=O)(O)OP(=O)(O)O)C2)c(=O)[nH]c1=O (racemic) [Example (+/−) 76, ((1S,2S,4R)-1-cyano-2-hydroxy-4-(5-methyl-2,4-dioxo-3,4-dihydropyrimidin-1(2H)-yl)cyclopentyl)methyl tetrahydrogen triphosphate and ((1R,2R,4S)-1-cyano-2-hydroxy-4-(5-methyl-2,4-dioxo-3,4-dihydropyrimidin-1(2H)-yl)cyclopentyl)methyl tetrahydrogen triphosphate] |  | 523000 | 
C#CC1(COP(=O)(O)OP(=O)(O)OP(=O)(O)O)CC(n2cc(C)c(=O)[nH]c2=O)CC1O (racemic) [Example (+/−) 48, ((1S,2S,4R)-1-ethynyl-2-hydroxy-4-(5-methyl-2,4-dioxo-3,4-dihydropyrimidin-1(2H)-yl)cyclopentyl)methyl tetrahydrogen triphosphate and ((1R,2R,4S)-1-ethynyl-2-hydroxy-4-(5-methyl-2,4-dioxo-3,4-dihydropyrimidin-1(2H)-yl)cyclopentyl)methyl tetrahydrogen triphosphate] |  | 114000 | 
((1S,2S,4R)-4-(6-amino-2-chloro-9H-purin-9-yl)-1-ethynyl-2-hydroxycyclopentyl)methyl tetrahydrogen triphosphate and ((1R,2R,4S)-4-(6-amino-2-chloro-9H-purin-9-yl)-1-ethynyl-2-hydroxycyclopentyl)methyl tetrahydrogen triphosphate [Example (+/−) 44] | 2.02e+07 |  | 
((1S,2S,4R)-4-(6-amino-2-chloro-9H-purin-9-yl)-1-ethynyl-2-hydroxycyclopentyl)methyl tetrahydrogen triphosphate or ((1R,2R,4S)-4-(6-amino-2-chloro-9H-purin-9-yl)-1-ethynyl-2-hydroxycyclopentyl)methyl tetrahydrogen triphosphate [Example 44B] | 9.32e+06 |  | 
C#C[C@]1(CO)C[C@@H](n2cnc3c(=O)[nH]c(N)nc32)C[C@@H]1O (single isomer, unassigned) [Example 26A, 2-amino-9-((lR,3S,4S)-3-ethynyl-4-hydroxy-3-(hydroxymethyl)cyclopentyl)-1,9-dihydro-6H-purin-6-one or 2-amino-9-((1S,3R,4R)-3-ethynyl-4-hydroxy-3-(hydroxymethyl)cyclopentyl)-1,9-dihydro-6H-purin-6-one] |  |  | IC50 ([2]; MT4-GFP cells): > 42 µM
C#C[C@]1(CO)C[C@@H](n2cnc3c(N)nc(Cl)nc32)C[C@@H]1O (single isomer, unassigned) [Example 18B, (1S,2S,4R)-4-(6-amino-2-chloro-9H-purin-9-yl)-2-ethynyl-2-(hydroxymethyl)cyclopentan-1-ol or (1R,2R,4S)-4-(6-amino-2-chloro-9H-purin-9-yl)-2-ethynyl-2-(hydroxymethyl)cyclopentan-1-ol] |  |  | IC50 [2, 4]: 11.7 µM
((1S,2S,4R)-4-(6-chloro-2-fluoro-9H-purin-9-yl)-1-ethynyl-2-hydroxycyclopentyl)methyl tetrahydrogen triphosphate and ((1R,2R,4S)-4-(6-chloro-2-fluoro-9H-purin-9-yl)-1-ethynyl-2-hydroxycyclopentyl)methyl tetrahydrogen triphosphate [Example (+/−) 40] | > 1e+08 |  | 
C#C[C@]1(CO[P@@](=O)(N[C@@H](C)C(=O)OC(C)C)Oc2ccccc2)C[C@@H](n2cnc3c(OCC)nc(N)nc32)C[C@@H]1O (mixture of isomers) [Example 39A and 39B, Isopropyl ((S)-(((1S,2S,4R)-4-(2-amino-6-ethoxy-9H-purin-9-yl)-1-ethynyl-2-hydroxycyclopentyl)methoxy)(phenoxy)phosphoryl)-L-alaninate and Isopropyl ((S)-(((1R,2R,4S)-4-(2-amino-6-ethoxy-9H-purin-9-yl)-1-ethynyl-2-hydroxycyclopentyl)methoxy)(phenoxy)phosphoryl)-L-alaninate] |  |  | IC50 [2, 4]: 0.0271 µM

Source: patent US11040975B2, “Carbocyclic nucleoside reverse transcriptase inhibitors” (Merck Sharp & Dohme Corp., priority 2017, dated 2021)
